Test results taken from patent US8324261B2, “Histidine derivatives” (Nippon Zoki Pharmaceutical Co., Ltd., priority 2007, dated 2012).
Like-named read-outs stand apart in the source and are kept apart here.

Columns and labels:
SART stressed mouse = assay: Test for analgesic effect (1): SART stressed mouse, modified Randall-Selitto tail pressure method; assay type: in vivo, mice; conditions: for Analgesic coefficient: 25 ng per mouse into the lateral ventricle, 30 minutes after administration, pain threshold of test group divided by that of SART control group, 1.0 = no effect
mice = assay: Test for analgesic effect (4): acetic acid writhing test; assay type: in vivo; conditions: oral single dose; 0.7% acetic acid i.p. 25 minutes after; writhing numbers during 10 minutes
Description: The compounds of the present invention or the carboxylic acid type thereof were orally administered to mice and a test for an analgesic effect was carried out by means of an acetic acid writhing test. As to the test animals, male mice of ddY strain of four weeks age were subjected to a preliminary breeding and they were used where one group comprised ten mice. Each of the compound of the present invention or the carboxylic acid type thereof as a test substance was orally administered in a single dose while, to a control group, distilled water (water for injection) was administered similarly. After 25 minutes from the administration of the test substance, a 0.7% acetic acid/physiological saline was intraperitoneally administered at the dose of 10 mL/kg. From 5 minutes thereafter, writhing numbers during 10 minutes were counted and a suppressive rate for each mouse was calculated according to the following formula. Suppressive Rate (%)=[(Mean writhing numbers of the control group)−(Writhing numbers of each mouse)]÷[Mean writhing numbers of the control group]×100

Chung model rat = assay: Test for analgesic effect (2)/(3): Chung model rat, mechanical allodynia by von Frey filament; assay type: in vivo, rats
Description: A test for analgesic effect was conducted using a Chung model rat which is a neuropathic pain model. As to the test animal, male rats of Wistar strain of nine weeks age were used and model rats were prepared in accordance with the method of Kim and Chung (Pain, vol. 50, pages 355 to 363, 1992). Thus, under anesthetization with pentobarbital (40 mg/kg, intraperitoneal administration), rat L5 spinal nerve was exposed and L5 dorsal root ganglion periphery side was strongly ligated using 5-0 silk yarn. The animals were placed in a transparent acrylate cage whose bottom was made of wire net, a 50% reaction threshold value was calculated by an up-down method using a von Frey filament (manufactured by North Coast Medical Inc.) according to the methods of Chaplan, et al. (J. Neurosci. Method, vol. 53, pages 55 to 63, 1994) and by Lee, et al. (J. Neurophysiol., vol. 81, pages 2226 to 2233, 1999) and measurement of allodynia was conducted. Before injury of spinal nerve, the 50% reaction threshold value was measured twice and the animals where the threshold value was outside the standard were excluded from the operation for spinal nerve injury. […] Those test animals were made into groups of seven animals so that the mean value of 50% reaction threshold after 28 days from the nerve injury as an index became nearly the same in each group.
The carboxylic acid type of the compounds of the present invention as a test substance was intraperitoneally administered in a single dose while, a 0.5% CMC-Na/physiological saline solution was administered similarly to a nerve injury control group. After 30 minutes from the administration of the test substance, allodynia was measured to calculate a 50% reaction threshold value. With regard to a significance test, Paired t-test was conducted for comparison between before and after the nerve injury and Dunnett's multiple comparison test was used for comparison among multiple groups of the nerve injury control group and the test substance administration group.
According to the same manner as in the above Test for Analgesic Effect (2), each of Compound 12 of the present invention (3 mg/kg, 10 mg/kg) and Carboxylic acid substance A of the compound of the present invention (10 mg/kg) was orally administered in a single dose as the test substance to Chung model rats. Allodynia after 0, 15, 30, 60 and 120 minutes from the administration was measured for each of the test substance administration group and the nerve injury control group whereupon a 50% reaction threshold value was calculated.

[1] = Test of kinetics in blood of rats; assay type: in vivo
Description: Each of the compound of the present invention and the carboxylic acid type A thereof was dissolved in DMSO, diluted with water. A sample solution (1% DMSO solution) made into 2 mg/mL was orally administered in a single dose to the fasted Wistar strain SPF male rats of seven weeks age using a stomach tube (10 mg/5 mL/kg). At the stages of 0.25, 0.5, 1, 2, 4 and 8 hour(s) after the administration, about 150 μL of the blood was collected from tail vein using a capillary to which heparin was added and said capillary was centrifuged to collect the plasma. Protein was removed from the plasma sample and the supernatant liquid was diluted to prepare each sample solution for the measurement.

[2] = set-up: species or system cynomolgus monkeys; conditions: cynomolgus monkey, in vivo, 30 mg/kg
Description: Each of the compound of the present invention and Carboxylic acid type A thereof dissolved or suspended in a hydrochloric acid solution was diluted with water. […] At the stages of before the administration and of 0.25, 0.5, 1, 2, 4, 8 and 24 hour(s) after the administration, the blood was collected from femoral vein using a syringe to which heparin was added followed by subjecting to centrifugation to collect the plasma. Collection of the blood was conducted for three times in total where one collection was done with each blank term of six days for each test substance. Concentration of Carboxylic acid type A in each of the collected plasma samples was quantified by an LC-MS and Cmax (maximum drug concentration in plasma) and AUC (area under blood concentration time curve; 0 to ∞ hour(s)) of the compound of the present invention and Carboxylic acid type A thereof were calculated.

## CC=CC(=O)N[C@@H](Cc1cncn1C)C(=O)O [Carboxylic acid type B, N^α-crotonoyl-N^π-methyl-L-histidine]
SART stressed mouse
  Analgesic coefficient: 1.23

## CCn1cncc1C[C@H](NC(=O)C=Cc1ccccc1)C(=O)O [Carboxylic acid type C, N^α-3-phenylpropenoyl-N^π-ethyl-L-histidine]
mice
  Suppressive Rate (%): 27.7%
SART stressed mouse
  Analgesic coefficient: 1.14

## C=CC(=O)N[C@@H](Cc1cncn1Cc1ccccc1)C(=O)O [Carboxylic acid type D, N^α-acryloyl-N^π-benzyl-L-histidine]
mice
  Suppressive Rate (%): 37.9%
Chung model rat; intraperitoneal single dose
  threshold as compared with the nerve injury control group: significant increase in the threshold
Chung model rat; intraperitoneally 400 μg/kg single dose, 30 minutes after administration
  50% reaction threshold value: 7.32 g

## CC(C)=CC(=O)N[C@@H](Cc1cncn1C)C(=O)O [Carboxylic acid type E, N^α-3-metylcrotonoyl-N^π-methyl-L-histidine]
mice
  Suppressive Rate (%): 17.8%

## C=CC(=O)N[C@@H](Cc1cncn1C)C(=O)OC [Compound 1, N^α-acryloyl-N^π-methyl-L-histidine methyl ester]
[1]; rat, in vivo, po, 10 mg/kg
  AUC: 2027.6 ng·h/mL
  Cmax: 1623.9 ng/mL

## C=CC(=O)N[C@@H](Cc1cncn1C)C(=O)OCC [Compound 2, N^α-acryloyl-N^π-methyl-L-histidine ethyl ester]
[1]; rat, in vivo, po, 10 mg/kg
  AUC: 3468.0 ng·h/mL
  Cmax: 2719.4 ng/mL

## C=CC(=O)N[C@@H](Cc1cncn1C)C(=O)OCC(C)(C)C [Compound 3, N^α-acryloyl-N^π-methyl-L-histidine neopentyl ester]
[1]; rats, oral 10 mg/kg single dose, 0 to 8 hours, Carboxylic acid type A quantified in plasma, values converted to dose equimolar to Carboxylic acid type A
  AUC: 2373.9 ng·h/mL
[1]; rats, oral 10 mg/kg single dose, Carboxylic acid type A quantified in plasma, values converted to dose equimolar to Carboxylic acid type A
  Cmax: 2074.0 ng/mL

## C=CC(=O)N[C@@H](Cc1cncn1C)C(=O)OCCC(C)C [Compound 4, N^α-acryloyl-N^π-methyl-L-histidine isopentyl ester]
[1]; rat, in vivo, po, 10 mg/kg
  AUC: 2641.8 ng·h/mL
  Cmax: 2144.0 ng/mL

## C=CC(=O)N[C@@H](Cc1cncn1C)C(=O)OCCC(C)(C)C [Compound 5, N^α-acryloyl-N^π-methyl-L-histidine 3,3-dimethylbutyl ester]
[1]; rat, in vivo, po, 10 mg/kg
  AUC: 3264.2 ng·h/mL
  Cmax: 2761.6 ng/mL

## C=CC(=O)N[C@@H](Cc1cncn1C)C(=O)OCCCC [Compound 6, N^α-acryloyl-N^π-methyl-L-histidine butyl ester]
[1]; rat, in vivo, po, 10 mg/kg
  AUC: 2774.6 ng·h/mL
  Cmax: 2407.2 ng/mL

## C=CC(=O)N[C@@H](Cc1cncn1C)C(=O)OCc1ccc(C)cc1 [Compound 9, N^α-acryloyl-N^π-methyl-L-histidine 4-methylbenzyl ester]
[1]; rat, in vivo, po, 10 mg/kg
  AUC: 3750.7 ng·h/mL
  Cmax: 2671.7 ng/mL

## C=CC(=O)N[C@@H](Cc1cncn1C)C(=O)OCc1ccc(Cl)cc1 [Compound 10, N^α-acryloyl-N^π-methyl-L-histidine 4-chlorobenzyl ester]
[1]; rat, in vivo, po, 10 mg/kg
  AUC: 3747.0 ng·h/mL
  Cmax: 2579.9 ng/mL

## C=CC(=O)N[C@@H](Cc1cncn1C)C(=O)OCc1ccc(C(C)(C)C)cc1 [Compound 11, N^α-acryloyl-N^π-methyl-L-histidine 4-tert-butylbenzyl ester]
[1]; rat, in vivo, po, 10 mg/kg
  AUC: 4234.6 ng·h/mL
  Cmax: 2207.4 ng/mL

## C=CC(=O)N[C@@H](Cc1cncn1C)C(=O)OCCc1ccccc1 [Compound 12, N^α-acryloyl-N^π-methyl-L-histidine phenethyl ester]
[2]
  AUC: 8099.0 ng·h/mL
  Cmax: 4088.2 ng/mL
Chung model rat; oral single dose (Compound 12: 3 and 10 mg/kg; Carboxylic acid type A: 10 mg/kg), 15, 30 and 60 minutes after administration, FIG. 1
  anti-allodynia action as compared with the nerve injury control group: significant anti-allodynia action
Chung model rat; oral, 10 mg/kg
  anti-allodynia action compared with Carboxylic acid type A in the same dose: stronger anti-allodynia action
[1]; rat, in vivo, po, 10 mg/kg
  AUC: 3971.6 ng·h/mL
  Cmax: 3111.6 ng/mL

## C=CC(=O)N[C@@H](Cc1cncn1C)C(=O)OCCc1ccc(OC)cc1 [Compound 13, N^α-acryloyl-N^π-methyl-L-histidine 4-methoxyphenethyl ester]
[1]; rat, in vivo, po, 10 mg/kg
  AUC: 4058.3 ng·h/mL
  Cmax: 3163.4 ng/mL

## C=CC(=O)N[C@@H](Cc1cncn1C)C(=O)OCCc1ccc(C)cc1 [Compound 14, N^α-acryloyl-N^π-methyl-L-histidine 4-methylphenethyl ester]
[2]
  AUC: 5133.2 ng·h/mL
  Cmax: 779.2 ng/mL

## C=CC(=O)N[C@@H](Cc1cncn1C)C(=O)OCCc1ccc(Cl)cc1 [Compound 15, N^α-acryloyl-N^π-methyl-L-histidine 4-chlorophenethyl ester]
[1]; rat, in vivo, po, 10 mg/kg
  AUC: 3620.6 ng·h/mL
  Cmax: 2391.8 ng/mL

## C=CC(=O)N[C@@H](Cc1cncn1C)C(=O)OCCc1ccc(C(C)(C)C)cc1 [Compound 16, N^α-acryloyl-N^π-methyl-L-histidine 4-tert-butylphenethyl ester]
[1]; rat, in vivo, po, 10 mg/kg
  AUC: 3601.8 ng·h/mL
  Cmax: 2562.7 ng/mL

## C=CC(=O)N[C@@H](Cc1cncn1C)C(=O)OC(C)OC(=O)OC1CCCCC1 (stereo partly drawn) [Compound 17, N^α-acryloyl-N^π-methyl-L-histidine 1-(cyclohexyloxycarbonyloxy)ethyl ester]
[1]; rat, in vivo, po, 10 mg/kg
  AUC: 2704.9 ng·h/mL
  Cmax: 2044.3 ng/mL

## C=CC(=O)N[C@@H](Cc1cncn1C)C(=O)OC(c1ccccc1)c1ccccc1 [Compound 24, N^α-acryloyl-N^π-methyl-L-histidine diphenylmethyl ester]
[1]; rat, in vivo, po, 10 mg/kg
  AUC: 2614.2 ng·h/mL
  Cmax: 1495.3 ng/mL

## Cl.Cn1cncc1C[C@H](NC(=O)C=Cc1ccccc1O)C(=O)OCCc1ccccc1 [Compound 26, N^α-[3-(2-hydroxyphenyl)acryloyl]-N^π-methyl-L-histidine phenethyl ester hydrochloride]
mice
  Suppressive Rate (%): 23.8%

## NCCC(=O)N[C@@H](Cc1cnc[nH]1)C(=O)O [carnosine, β-ananyl-L-histidine, reference compound]
SART stressed mouse; administration into the lateral ventricle
  analgesic action: no significant analgesic action
